Molecules are shown by their SMILES.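 Following 48 hours of exposure in 96-well plates, responses at five concentrations were used to interpolate endpoints linearly. Abbreviation: GI50, concentration required for 50% inhibition of growth. TGI: concentration producing complete growth inhibition.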 Some results are limits rather than exact numbers.

Some test systems named below: OVCAR-8 ovarian; SNB-75 CNS; NCI-H460 lung; U251 CNS; DU-145 prostate; HT29 colon; MCF7 breast; RXF 393 renal; K-562 leukemia; A498 renal.
Holding throughout (test): growth of human tumour cells (NCI), 48 h

For `CCN(CC)CCCCCCNc1cc(OC)cc2cccnc12`, the GI50 in the experiment with OVCAR-8 ovarian was 3.04 µM; with SNB-75 CNS it was 13.8 µM; with NCI-H460 lung, 2 µM; in the experiment on U251 CNS, 2.38 µM; in the experiment with DU-145 prostate it was 1.8 µM; with HT29 colon, 1.82 µM. Moreover, the GI50 with MCF7 breast was 1.74 µM; in the experiment with RXF 393 renal, 4.26 µM; in the experiment with K-562 leukemia it was 1.74 µM. For the same compound, the TGI is 8.99 µM in the experiment with OVCAR-8 ovarian; 30.6 µM in the experiment on SNB-75 CNS; 3.79 µM in the experiment with NCI-H460 lung; 5.2 µM in the experiment with U251 CNS; 3.65 µM in the experiment on DU-145 prostate; 3.43 µM in the experiment with HT29 colon. Moreover, the TGI stood at 3.56 µM in the experiment on MCF7 breast, 15.7 µM with RXF 393 renal and 3.58 µM with K-562 leukemia.

With `COc1ccc(-c2nc(/C=C3\SC(=NCc4ccccc4)NC3=O)c3ccccn23)cc1`, the GI50 in the experiment on OVCAR-8 ovarian is 2.04 µM; in the experiment on SNB-75 CNS, 1.51 µM; in the experiment on NCI-H460 lung, 0.666 µM; in the experiment with U251 CNS, 1.95 µM; with DU-145 prostate it was 0.685 µM; in the experiment on HT29 colon it was 0.818 µM. The GI50 with MCF7 breast is 1.55 µM; in the experiment on RXF 393 renal, 1.18 µM; in the experiment on A498 renal, 1.51 µM; with K-562 leukemia, 2.76 µM. Moreover, the TGI with OVCAR-8 ovarian was 8.13 µM; in the experiment on SNB-75 CNS it was 3.2 µM; in the experiment with NCI-H460 lung, 2.24 µM; in the experiment on DU-145 prostate, 1.81 µM; with HT29 colon it was 2.17 µM; in the experiment with MCF7 breast it was 3.39 µM. Further, the TGI is 2.97 µM in the experiment on RXF 393 renal, 6.56 µM in the experiment with A498 renal and over 100 µM in the experiment on K-562 leukemia.

On to `N#CC1=C(/N=C/c2ccccc2)Oc2c(ccc3ccccc23)C1c1ccccc1` (stereo not drawn), for which the GI50 in the experiment on OVCAR-8 ovarian was 0.708 µM; with NCI-H460 lung, 0.386 µM; with U251 CNS, 0.527 µM; in the experiment on DU-145 prostate, 0.735 µM; with HT29 colon, 0.37 µM; in the experiment with MCF7 breast it was 0.421 µM. In addition, the GI50 with A498 renal is 0.191 µM; with K-562 leukemia it was 0.358 µM. For the same compound, the TGI with OVCAR-8 ovarian is over 100 µM; in the experiment with NCI-H460 lung it was over 39.3 µM; in the experiment on U251 CNS, over 100 µM; with DU-145 prostate it was over 64.3 µM; in the experiment with HT29 colon it was over 100 µM; in the experiment with MCF7 breast, over 100 µM. Besides, the TGI in the experiment on A498 renal is 0.747 µM; with K-562 leukemia it was over 100 µM.

As to `CCc1cccc(C)c1NC(=O)c1sc2nc3c(cc2c1N)C(=O)CCC3`, the GI50 in the experiment on OVCAR-8 ovarian is 2.21 µM; in the experiment with SNB-75 CNS, 0.527 µM; in the experiment on NCI-H460 lung, 0.371 µM; in the experiment on U251 CNS, 0.659 µM; in the experiment on DU-145 prostate, 0.514 µM; with HT29 colon, 0.411 µM. Also, the GI50 in the experiment with MCF7 breast is 0.396 µM; with A498 renal it was 0.2 µM; in the experiment on K-562 leukemia, 0.422 µM. Further, the TGI in the experiment on OVCAR-8 ovarian was over 91.7 µM; with SNB-75 CNS, over 100 µM; in the experiment with NCI-H460 lung it was 14 µM; in the experiment on U251 CNS, over 100 µM; in the experiment on DU-145 prostate it was over 100 µM; in the experiment on HT29 colon, 2.3 µM. The figures for the TGI with MCF7 breast, with A498 renal and in the experiment on K-562 leukemia were over 91.4 µM, 0.759 µM and 22.4 µM, respectively.

Consider `CCCCCCNC(=O)Oc1ccc(/C(=C(\C)c2ccc(Cl)cc2)c2ccc(OCCN3CCCCC3)cc2)cc1`, for which the GI50 with OVCAR-8 ovarian is 5.53 µM; with SNB-75 CNS, 5.59 µM; in the experiment with NCI-H460 lung, 1.57 µM; in the experiment on U251 CNS it was 3.52 µM; with DU-145 prostate, 6.26 µM; with HT29 colon it was 1.11 µM. Moreover, the GI50 in the experiment on MCF7 breast was 0.104 µM; in the experiment with RXF 393 renal, 3.3 µM; with K-562 leukemia, 0.923 µM. In addition, the TGI in the experiment with OVCAR-8 ovarian amounted to 11.7 µM; in the experiment with SNB-75 CNS it was 14.3 µM; in the experiment on NCI-H460 lung, 5.46 µM; in the experiment with U251 CNS it was 7.92 µM; in the experiment on DU-145 prostate, 16.4 µM; in the experiment with HT29 colon it was 4.02 µM. In addition, the TGI stood at 5.38 µM in the experiment on MCF7 breast, 7.55 µM in the experiment on RXF 393 renal and 3.51 µM in the experiment on K-562 leukemia.

Take `C#CCNC(=O)[C@H](CC)[C@H]1CC[C@H](C)[C@H]([C@@H](C)[C@H](O)[C@H](C)C(=O)[C@H](CC)C2O[C@]3(C=CC(=O)[C@]4(CC[C@@](C)([C@H]5CC[C@](O)(CC)[C@H](C)O5)O4)O3)[C@H](C)C[C@@H]2C)O1` (stereo partly drawn): the GI50 in the experiment on OVCAR-8 ovarian was 2.96 µM; in the experiment with SNB-75 CNS, 1.39 µM; with NCI-H460 lung it was 2.55 µM; with U251 CNS it was 1.88 µM; in the experiment on DU-145 prostate it was 2.41 µM; in the experiment on HT29 colon, 2.26 µM. Further, the values for the GI50 in the experiment on MCF7 breast, in the experiment on RXF 393 renal and with A498 renal were 2.67 µM, 2.48 µM and 2.19 µM, respectively. Besides, the TGI was 35.8 µM in the experiment on OVCAR-8 ovarian; 3.36 µM in the experiment on SNB-75 CNS; 6.94 µM in the experiment on NCI-H460 lung; 3.93 µM in the experiment on U251 CNS; 6.32 µM in the experiment with DU-145 prostate; 5.46 µM in the experiment on HT29 colon. Besides, the TGI in the experiment with MCF7 breast was determined as 12.2 µM; in the experiment with RXF 393 renal, 7.63 µM; in the experiment with A498 renal, 6.07 µM.

`O=C1c2sccc2-c2cccc3cccc1c23` (tested in a mixture with another compound): the TGI worked out at 36.4 µM with OVCAR-8 ovarian; 37.3 µM in the experiment on SNB-75 CNS; 82.6 µM with NCI-H460 lung; 23 µM in the experiment on U251 CNS; 7.03 µM in the experiment with DU-145 prostate; 15.2 µM in the experiment with HT29 colon. The TGI in the experiment on MCF7 breast is over 100 µM; in the experiment with RXF 393 renal, over 100 µM; in the experiment on K-562 leukemia, 25.8 µM.

As for `COc1ccc(N(CC(=O)NCCC[Te]c2ccccc2)C(=O)CNC(=O)OC(C)(C)C)cc1`, the GI50 in the experiment on OVCAR-8 ovarian was 2.41 µM; in the experiment with SNB-75 CNS it was 2.07 µM; in the experiment with NCI-H460 lung it was 0.45 µM; in the experiment with U251 CNS, 2.37 µM; in the experiment on DU-145 prostate, 2.91 µM; in the experiment with HT29 colon it was 3.82 µM. Moreover, the figures for the GI50 in the experiment with MCF7 breast, with A498 renal and in the experiment with K-562 leukemia were 2.57 µM, 2.28 µM and 5.5 µM, respectively. For the same compound, the TGI was found to be 6.92 µM in the experiment with OVCAR-8 ovarian; 7.43 µM in the experiment with SNB-75 CNS; 1.85 µM with NCI-H460 lung; 6.51 µM in the experiment on U251 CNS; 7.6 µM in the experiment with DU-145 prostate; 13.9 µM with HT29 colon. Further, the TGI was 7.59 µM in the experiment with MCF7 breast, 5.35 µM in the experiment with A498 renal and over 100 µM in the experiment on K-562 leukemia.

For the compound `OC(C#Cc1ccccc1)(c1ccccc1)c1ccccc1`, the TGI in the experiment with OVCAR-8 ovarian is over 100 µM; in the experiment on SNB-75 CNS, over 100 µM; in the experiment with NCI-H460 lung, 50.6 µM; in the experiment with U251 CNS, 83.4 µM; in the experiment with DU-145 prostate, over 100 µM; with HT29 colon, 78.4 µM. Also, the values for the TGI with MCF7 breast, with A498 renal and with K-562 leukemia were 45.7 µM, 83.4 µM and over 100 µM, respectively.

For the origin of these results see PubChem BioAssay (NCI).
